Values after ≈ are worked out from the molar mass of the structure shown.
Legend:
[1] = Oral bioavailability in Beagle dog at 1 mg/kg measured for >24 hrs by HPLC-MS/MS analysis; format: ADME, organism-based, Canis lupus familiaris; settings: in vivo
[2] = Selectivity ratio of IC50 for C-terminal 6His-tagged recombinant human ADAM8 (1 to 497 residues) using Dabcyl-SSNQLQRR-Glu(EDANS)-NH2 as substrate to IC50 for ADAMTS7 (unknown origin)
[3] = Half life in C57bl6 mouse at 1 mg/kg, po measured for >24 hrs by HPLC-MS/MS analysis; format: ADME, organism-based; settings: in vivo
[4] = Solubility of compound in FaSSIF measured after 24 hrs by HPLC analysis; format: ADME; settings: simulated gi fluid
[5] = target: A disintegrin and metalloproteinase with thrombospondin motifs 7 (Rattus norvegicus, UniProt Q1EHB3); experiment: Inhibition of recombinant rat ADAMTS7 using HiLyteFluor-488 DELSSMVLELRGLRT-K(QXL520)-E-NH2 as substrate incubated for 120 mins by FRET assay
[6] = Dose normalized AUC in Wistar rat at 1 mg/kg, po measured for >24 hrs by HPLC-MS/MS analysis; format: ADME, organism-based; settings: in vivo
[7] = Fraction unbound in human plasma; format: ADME, cell-free
[8] = Selectivity ratio of IC50 for MMP12 (unknown origin) to IC50 for ADAMTS7 (unknown origin)
Cytochrome P450 2C8 [9] = target: T1, Cytochrome P450 2C8 (Homo sapiens, UniProt P10632); experiment: Inhibition of CYP2C8 in human liver microsomes using diclofenac as substrate upto 20 uM by LC-MS/MS analysis; format: ADME, Microsome
T1 sequence (P10632 whole entry): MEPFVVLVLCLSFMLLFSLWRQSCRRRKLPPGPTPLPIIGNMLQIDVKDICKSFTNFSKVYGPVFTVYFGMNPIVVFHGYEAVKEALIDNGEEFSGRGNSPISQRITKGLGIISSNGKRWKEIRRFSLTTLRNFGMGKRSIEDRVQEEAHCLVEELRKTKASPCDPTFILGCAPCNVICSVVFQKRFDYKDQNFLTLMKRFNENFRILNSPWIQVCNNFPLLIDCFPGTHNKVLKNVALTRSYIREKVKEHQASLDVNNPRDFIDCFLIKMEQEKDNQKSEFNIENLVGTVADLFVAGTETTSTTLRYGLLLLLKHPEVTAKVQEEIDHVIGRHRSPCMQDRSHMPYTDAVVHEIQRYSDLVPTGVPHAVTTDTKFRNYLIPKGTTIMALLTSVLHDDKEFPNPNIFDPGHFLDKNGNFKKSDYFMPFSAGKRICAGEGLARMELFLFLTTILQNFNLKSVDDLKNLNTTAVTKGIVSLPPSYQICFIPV

[10] = Selectivity ratio of IC50 for MMP15 (unknown origin) to IC50 for ADAMTS7 (unknown origin)
[11] = Clearance in C57bl6 mouse at 0.3 mg/kg, iv measured for >24 hrs by HPLC-MS/MS analysis; format: ADME, organism-based; settings: in vivo
[12] = Dose normalized AUC in Beagle dog at 0.3 mg/kg, iv measured for >24 hrs by HPLC-MS/MS analysis; format: ADME, organism-based, Canis lupus familiaris; settings: in vivo
Cytochrome P450 3A4 = Cytochrome P450 3A4 (Homo sapiens, UniProt P08684); experiment: Induction of CYP3A4 in human hepatocytes upto 61 uM incubated for 48 hrs by qPCR analysis; format: ADME, cell-based, Hepatocyte
[13] = Fraction unbound in rat plasma; format: ADME, cell-free
[14] = Dose normalized AUC in Beagle dog at 1 mg/kg, po measured for >24 hrs by HPLC-MS/MS analysis; format: ADME, organism-based, Canis lupus familiaris; settings: in vivo
Cytochrome P450 2C8 [15] = target: T1, Cytochrome P450 2C8; experiment: Inhibition of CYP2C8 in human liver microsomes using amodiaquin as substrate upto 20 uM by LC-MS/MS analysis; format: ADME, Microsome
[16] = Volume of distribution at steady state in Wistar rat at 0.3 mg/kg, iv measured for >24 hrs by HPLC-MS/MS analysis; format: ADME, organism-based; settings: in vivo
[17] = Selectivity ratio of IC50 for MMP2 (unknown origin) to IC50 for ADAMTS7 (unknown origin)

Sequence of A disintegrin and metalloproteinase with thrombospondin motifs 7 (Q1EHB3 whole entry): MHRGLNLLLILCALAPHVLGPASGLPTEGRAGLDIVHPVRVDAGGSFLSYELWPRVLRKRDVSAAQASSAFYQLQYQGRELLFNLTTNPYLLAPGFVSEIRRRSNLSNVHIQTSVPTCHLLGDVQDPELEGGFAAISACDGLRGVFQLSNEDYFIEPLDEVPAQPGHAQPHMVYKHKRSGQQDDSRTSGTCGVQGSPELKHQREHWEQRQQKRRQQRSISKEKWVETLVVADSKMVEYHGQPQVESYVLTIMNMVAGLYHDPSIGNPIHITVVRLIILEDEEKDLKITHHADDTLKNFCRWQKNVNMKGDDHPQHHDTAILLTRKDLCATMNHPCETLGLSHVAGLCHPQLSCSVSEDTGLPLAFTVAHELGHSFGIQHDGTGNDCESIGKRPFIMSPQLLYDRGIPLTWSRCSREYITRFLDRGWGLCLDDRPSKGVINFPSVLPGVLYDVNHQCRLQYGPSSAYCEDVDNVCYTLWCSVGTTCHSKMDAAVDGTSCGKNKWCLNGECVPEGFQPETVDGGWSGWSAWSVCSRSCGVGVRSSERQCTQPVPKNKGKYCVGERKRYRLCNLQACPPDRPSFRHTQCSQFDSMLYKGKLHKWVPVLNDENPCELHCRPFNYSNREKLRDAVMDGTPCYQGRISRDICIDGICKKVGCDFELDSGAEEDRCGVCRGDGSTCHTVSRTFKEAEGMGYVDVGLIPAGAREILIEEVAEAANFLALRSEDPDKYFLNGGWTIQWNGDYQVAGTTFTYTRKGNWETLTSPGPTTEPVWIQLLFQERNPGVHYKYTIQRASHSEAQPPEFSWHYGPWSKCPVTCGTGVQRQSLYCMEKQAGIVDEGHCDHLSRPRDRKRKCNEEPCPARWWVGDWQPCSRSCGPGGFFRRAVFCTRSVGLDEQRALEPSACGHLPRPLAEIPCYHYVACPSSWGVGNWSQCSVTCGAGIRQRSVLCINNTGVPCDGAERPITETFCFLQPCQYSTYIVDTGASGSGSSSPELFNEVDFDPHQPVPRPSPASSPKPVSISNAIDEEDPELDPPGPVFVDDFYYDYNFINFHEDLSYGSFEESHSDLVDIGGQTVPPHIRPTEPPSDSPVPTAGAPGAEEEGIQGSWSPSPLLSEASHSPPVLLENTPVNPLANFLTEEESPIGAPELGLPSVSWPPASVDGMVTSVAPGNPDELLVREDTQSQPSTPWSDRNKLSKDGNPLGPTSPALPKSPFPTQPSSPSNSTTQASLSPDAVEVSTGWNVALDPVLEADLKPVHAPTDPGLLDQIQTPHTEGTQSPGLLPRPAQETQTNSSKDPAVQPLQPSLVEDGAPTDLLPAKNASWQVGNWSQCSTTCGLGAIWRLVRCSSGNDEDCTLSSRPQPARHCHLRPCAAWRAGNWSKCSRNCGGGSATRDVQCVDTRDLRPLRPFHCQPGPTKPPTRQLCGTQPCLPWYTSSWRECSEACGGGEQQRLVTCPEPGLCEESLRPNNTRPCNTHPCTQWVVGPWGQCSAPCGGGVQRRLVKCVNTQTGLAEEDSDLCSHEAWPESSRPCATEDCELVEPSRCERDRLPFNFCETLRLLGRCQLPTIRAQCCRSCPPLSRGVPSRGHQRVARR
Sequence of Cytochrome P450 3A4 (P08684 whole entry): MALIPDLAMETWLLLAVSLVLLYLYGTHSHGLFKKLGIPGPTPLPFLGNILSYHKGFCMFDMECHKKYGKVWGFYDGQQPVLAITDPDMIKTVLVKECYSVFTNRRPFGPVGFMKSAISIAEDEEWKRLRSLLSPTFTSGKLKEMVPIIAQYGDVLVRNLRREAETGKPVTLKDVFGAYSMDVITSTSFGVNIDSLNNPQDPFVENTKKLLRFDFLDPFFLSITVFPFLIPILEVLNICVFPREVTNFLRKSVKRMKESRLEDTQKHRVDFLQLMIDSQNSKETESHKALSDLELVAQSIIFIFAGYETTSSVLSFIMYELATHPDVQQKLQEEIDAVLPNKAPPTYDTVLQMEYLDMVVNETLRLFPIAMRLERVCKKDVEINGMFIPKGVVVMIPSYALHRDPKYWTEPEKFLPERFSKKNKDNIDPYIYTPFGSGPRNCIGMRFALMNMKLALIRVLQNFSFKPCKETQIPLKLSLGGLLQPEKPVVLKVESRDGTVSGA

SMILES: Cn1nccc1[C@]1(CNC(=O)c2ccc(F)c(F)c2-c2ccc(C(F)(F)F)cc2)NC(=O)NC1=O
- F [1]: 77%
- Ratio IC50 [2]: 375
- t1/2 [3]: 2.5 h
- solubility [4]: 297 µg/mL (≈ 602 µM)
- IC50 [5]: 27 nM
- AUC/dose [6]: 3 kg·h/L
- Fu [7]: 15%
- Ratio IC50 [8]: 896
- inhibition (INH) (Cytochrome P450 2C8 [9]): Not Active
- Ratio IC50 [10]: 13100
- CL [11]: 18.3 mL/min/kg
- AUC/dose [12]: 88 kg·h/L
- Activity (Cytochrome P450 3A4): Not Active
- Fu [13]: 5%
- AUC/dose [14]: 68 kg·h/L
- inhibition (INH) (Cytochrome P450 2C8 [15]): Not Active
- Vdss [16]: 1.2 L/kg
- Ratio IC50 [17]: 17300

— ChEMBL document CHEMBL5528056, “BAY-9835: Discovery of the First Orally Bioavailable ADAMTS7 Inhibitor” (J Med Chem, 2024)
